Test results from patent US20200392150A1, “Diaryl-B-Lactam Compound and Preparation Method and Pharmaceutical Use Thereof” (Fudan University, priority 2016, published 2020).
Entries after “also recorded” stand apart in the source; their conditions may differ. Where two headings read alike, the source gives them in different places.

Tests used:
[1] = target: T1, Pig brain tubulin (Sus scrofa, UniProt P02550+P02554); assay: In vitro tubulin polymerization assay; format: biochemical
T1 construct: purchased; host or cells: pig brain
T1 sequence (P02554 whole entry): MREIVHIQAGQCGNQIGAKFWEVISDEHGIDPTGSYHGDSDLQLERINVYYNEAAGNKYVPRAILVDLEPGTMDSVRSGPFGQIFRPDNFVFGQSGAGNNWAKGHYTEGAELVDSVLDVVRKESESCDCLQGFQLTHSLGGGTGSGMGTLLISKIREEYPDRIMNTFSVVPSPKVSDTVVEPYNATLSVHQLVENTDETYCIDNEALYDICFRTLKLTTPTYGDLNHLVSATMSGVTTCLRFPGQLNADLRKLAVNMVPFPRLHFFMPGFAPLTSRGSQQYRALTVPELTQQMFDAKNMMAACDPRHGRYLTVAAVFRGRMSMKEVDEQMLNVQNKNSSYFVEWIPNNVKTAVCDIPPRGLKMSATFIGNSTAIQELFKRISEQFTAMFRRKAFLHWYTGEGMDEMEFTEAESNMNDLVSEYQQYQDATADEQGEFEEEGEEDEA
T1 sequence (P02550 whole entry): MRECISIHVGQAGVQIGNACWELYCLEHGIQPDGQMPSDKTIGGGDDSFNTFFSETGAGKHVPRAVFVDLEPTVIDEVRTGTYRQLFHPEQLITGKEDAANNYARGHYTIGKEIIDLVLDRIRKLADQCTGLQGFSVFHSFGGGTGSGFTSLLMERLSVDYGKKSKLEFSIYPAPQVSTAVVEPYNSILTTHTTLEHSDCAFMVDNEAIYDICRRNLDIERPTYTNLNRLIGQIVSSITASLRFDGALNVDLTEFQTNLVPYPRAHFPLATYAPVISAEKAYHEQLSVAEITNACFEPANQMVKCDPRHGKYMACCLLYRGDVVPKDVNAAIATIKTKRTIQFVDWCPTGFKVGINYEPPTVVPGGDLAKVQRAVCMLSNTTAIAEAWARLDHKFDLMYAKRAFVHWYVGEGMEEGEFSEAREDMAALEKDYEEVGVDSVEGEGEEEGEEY
Experimental: In vitro tubulin polymerization assay Pig brain tubulin was obtained commercially and stored in aliquots at −70° C. […] The absorbance of wavelength at 340 nm was detected every 1 min for 20 min by Spectra Max 190 spectrophotometer (Molecular Device) at 37° C. The results were indicated as mean values from three independent determinations.

[2] = system: tubulin in Hela cells; assay: Immunoblotting analysis of polymerized/depolymerized tubulin; format: cell-based, human; conditions: 6 h
Experimental: After being treated with diluent (0.2% DMSO), tested compound, CA-4 or PTX for 6 h, Hela cells were lysed with microtubulestabilizing buffer, containing 100 mM PIPES, pH 6.8, 1 mM MgCl2, 2 mM EGTA, 0.5% NP-40, 2 M glycerol, 5 μM PTX and protease inhibitors cocktail (Roche), and the lysate was centrifuged at 15,000 rpm for 15 min. Supernatant containing depolymerized tubulin was carefully collected, whereas pellet (polymerized tubulin) was further dissolved in SDS-lysis buffer (Beyotime, China). Equal amounts of supernatant and dissolved pellet were subjected to immunoblotting analysis as described above using atubulin antibody (Proteintech).

[3] = system: tubulin in SKOV-3 cells; assay: Immunofluorescent analysis of tubulin morphology; format: cell-based, human; conditions: 24 h
Experimental: After treatment with diluent (0.2% DMSO) or tested compounds at indicated concentrations for 24 h, SKOV-3 cells were fixed with methanol, permeabilized with 0.1% Triton X-100 in PBS and blocked by goat serum. Then the cells were incubated with a-tubulin antibody at 4° C. overnight, followed by incubation with Alexa 488 labeled secondary antibody (Jackson ImmunoResearch) at RT for 1 h. After being stained with DAPI, cells were examined and photographed with a Leica SP5 co-focal fluorescence microscope.

[4] = system: human umbilical veinendothelial cells (HUVECs); assay: Capillary-like tube formation assay; format: cell-based; conditions: HUVECs on matrigel, 12 h
Experimental: […] matrigel (Corning) per well was added to 96-well plate and pre-incubated at 37° C. for 1 h for gelation. 3*10^4 human umbilical veinendothelial cells (HUVECs) in […] medium per well containing indicated concentrations of 69, 70 and 97, CA-4 as positive control, or diluent (0.2% DMSO) as negative control, respectively, were seeded to 96-well plates on the matrigel layer, followed by continual incubation at 37° C. for 12 h to allow capillary-like tube formation. Images were captured with a CCD Sensicam camera mounted on an Olympus inverted microscope. Representative data from three independent experiments were shown.

[5] = system: MDA-MB-231 cells; assay: Colony formation assay; format: cell-based, human; conditions: 48 h treatment, 7-10 days growth
Experimental: 1000 MDA-MB-231 cells per well were seeded into 6-well plate at a single cell density and were cultured at 37° C. for 48 h. After being treated with indicated concentrations of 69, 70 and 97, CA-4 as positive control, or diluent (0.2% DMSO) as negative control for 48 h, the agents containing medium was replaced by fresh medium to allow cell growth for additional 7-10 days. Then the cells were fixed with methanol and stained with gentian violet for 30 min.
The number of colonies which consisted of more than 50 cells were counted. The results were indicated as mean values from three independent determinations.

[6] = system: Hela cells; assay: Cell cycle analysis; format: cell-based, human; conditions: 24 h
Experimental: 2*10^5 Hela cells per well were seeded into six-well plate and allowed to adhere overnight at 37° C. After treatment with indicated concentrations of 69, 70 and 97, CA-4 as positive control or diluent (0.2% DMSO) as negative control for 24 h, cells were harvested, washed twice with PBS and fixed with 75% ethanol at −20° C. overnight. Then cells were stained with propidium iodide dye (BD Biosciences) for 15 min in dark conditions at room temperature, followed by subjected to flow cytometry (Cytomics FC 500MPL, Beckman Coulter) detection. The results were analyzed by Multicycle AV (for Windows, version 320) software and indicated as mean values from three independent determinations.

[7] = system: p-histone H3, cyclin B1 and BuBR1 in HeLa cells; assay: Cell cycle associated proteins assay; format: cell-based, human; conditions: 24 h, western blot and qPCR
Experimental: A. HeLa cells were treated with 69, 70, 97 or DMSO for 24 h. After being harvested, the cells were lysed, and the concentrations of total protein were determined by BCA protein assay kit (Beyotime, China). […] The membrane was blocked with 5% BSA in TBST for 1.5 h, then incubated overnight with specific primary antibodies (Proteintech) at 4° C. After being washed three times by TBST, the membrane was incubated with specific secondary antibodies (Abnova, Taipei, China) at room temperature for 2 h. Finally, chemiluminescent reagents (Millipore) were employed to detect the protein bands.
(§1) B. Quantitative PCR assay: HeLa cells were treated with 69, 70 or 97. The expression level of mRNA of target proteins was tested with qPCR kit (Takara).

[8] = system: Bax, p53 and cleaved-PARP in HeLa cells; assay: Expression level of apoptosis associated proteins; format: cell-based, human; conditions: western blotting and qPCR
Experimental: A. Western blotting: After being treated with candidate compound, cells were harvested and lysed. Then, the lysate was isolated by ultracentrifuge and quantified by BCA assay according to the protocol. After being denatured, equivalent protein of each sample was separated by SDSPAGE gel and wet-transferred onto 0.22 μm nitrocellulose membrane. After being blocked by PBS containing 5% skim milk, the membrane was incubated with primary antibody at 4° C. overnight and secondary antibody at room temperature for 2 h and then visualized by enhanced chemiluminescence kit (Thermo Fisher, USA), sequentially.
as §1

[9] = system: A2780 cells xenograft; assay: Xenografts tumor growth assay in nude mice; format: in vivo, Balb/c nude mice; conditions: i.p. once every 2 days, 69 7.5 mg/kg, 70 12.5 mg/kg, 97 4 or 8 mg/kg
Experimental: 6 weeks old female Balb/c nude mice were purchased from Shanghai Slac Laboratory Animal Co. Ltd. (Shanghai, China). 2*10^6 A2780 cells suspended in 0.2 mL PBS per mouse was injected subcutaneously into the nude mice. […] Administration of agents or vehicle, or agents and measurement of tumor volumes with a digital caliper was done once every 2 days. Tumor volumes were calculated as volume=shortest diameter (W)^2*longest diameter (L)*0.52. When the average tumor volumes of vehicle treated group reached 2000 mm^3 in diameter, the mice were sacrificed and the tumors were isolated and weighed. Visceral organs of the mice as well as solid tumors were further analyzed by H&E staining.

| SMILES | IC50 [1] | polymerized tubulin (immunoblotting) [2] | tubulin assembly (immunofluorescence) [3] | capillary-like tube formation [4] | colony formation [5] | cell cycle arrest (G2/M, mitotic arrest) [6] | expression of p-histone H3, cyclin B1 and BuBR1 [7] | expression of Bax, p53 and cleaved-PARP [8] | H&E staining of liver, kidney and spleen [9] | H&E staining of tumor sections [9] | mouse body weight [9] | tumor growth in vivo [9] | IC50 ([1]; pig brain tubulin, absorbance 340 nm, 20 min, 37° C., read-out: IC50 disruption of tubulin assembly) |
| --- | --- | --- | --- | --- | --- | --- | --- | --- | --- | --- | --- | --- | --- |
| COc1ccc([C@H]2[C@H](CO)C(=O)N2c2cc(OC)c(OC)c(OC)c2)cc1O [Compound 69, (3R,4R)-4-(3-hydroxy-4-methoxyphenyl)-3-(hydroxymethyl)-1-(3,4,5-trimethoxyphenyl)azetidin-2-one] | 3500 nM | significantly inhibit tubulin aggregation; also recorded: dramatically reduction of polymerized tubulin | significantly inhibit tubulin aggregation; also recorded: strongly inhibit tubulin assembly | significantly inhibit the formation of capillary-like structures; also recorded: almost completely disrupted the capillary-like tube formation | significantly inhibit the formation of colonies; also recorded: dose-dependently reduced | significantly arrest cells in the G2/M phase; also recorded: significantly induce cellular mitotic arrest | significantly promote the expression of phosphorylated histone H3, cyclinB1, and mitotic checkpoint protein BuBR1; also recorded: significantly induce the expression of p-histone H3, cyclin B1 and BuBR1 | significantly promote the expression of the proapoptotic protein Bax, the tumor suppressor gene p53, and the cleaved DNA repair enzyme; also recorded: significantly induce the expression of Bax, p53 and cleaved-PARP | no abnormal areas are observed in tissue staining of liver, kidney and spleen; also recorded: no detectable abnormalities were observed in liver, kidney and spleen | cause tumor tissue to produce necrotic areas; also recorded: extensive areas of necrosis or cell death | no significant influence on mouse body weight; also recorded: no significant weight loss observed | significantly inhibit tumor growth in vivo; also recorded: anti-tumor activities in vivo | – |
| COc1ccc([C@H]2[C@@H](C)C(=O)N2c2cc(OC)c(OC)c(OC)c2)cc1O [Compound 70, (3R,4R)-4-(3-hydroxy-4-methoxyphenyl)-3-methyl-1-(3,4,5-trimethoxyphenyl)azetidin-2-one] | 1700 nM | significantly inhibit tubulin aggregation; also recorded: dramatically reduction of polymerized tubulin | significantly inhibit tubulin aggregation; also recorded: strongly inhibit tubulin assembly | significantly inhibit the formation of capillary-like structures; also recorded: almost completely disrupted the capillary-like tube formation | significantly inhibit the formation of colonies; also recorded: dose-dependently reduced | significantly arrest cells in the G2/M phase; also recorded: significantly induce cellular mitotic arrest | significantly promote the expression of phosphorylated histone H3, cyclinB1, and mitotic checkpoint protein BuBR1; also recorded: significantly induce the expression of p-histone H3, cyclin B1 and BuBR1 | significantly promote the expression of the proapoptotic protein Bax, the tumor suppressor gene p53, and the cleaved DNA repair enzyme; also recorded: significantly induce the expression of Bax, p53 and cleaved-PARP | no abnormal areas are observed in tissue staining of liver, kidney and spleen; also recorded: no detectable abnormalities were observed in liver, kidney and spleen | cause tumor tissue to produce necrotic areas; also recorded: extensive areas of necrosis or cell death | no significant influence on mouse body weight; also recorded: no significant weight loss observed | significantly inhibit tumor growth in vivo; also recorded: anti-tumor activities in vivo | – |
| COc1ccc([C@H]2[C@H](C)C(=O)N2c2cc(OC)c(OC)c(OC)c2)cc1O [Compound 97, (3S,4R)-4-(3-hydroxy-4-methoxyphenyl)-3-methyl-1-(3,4,5-trimethoxyphenyl)azetidin-2-one] | – | significantly inhibit tubulin aggregation; also recorded: dramatically reduction of polymerized tubulin | significantly inhibit tubulin aggregation; also recorded: strongly inhibit tubulin assembly | significantly inhibit the formation of capillary-like structures; also recorded: almost completely disrupted the capillary-like tube formation | significantly inhibit the formation of colonies; also recorded: dose-dependently reduced | significantly arrest cells in the G2/M phase; also recorded: significantly induce cellular mitotic arrest | significantly promote the expression of phosphorylated histone H3, cyclinB1, and mitotic checkpoint protein BuBR1; also recorded: significantly induce the expression of p-histone H3, cyclin B1 and BuBR1 | significantly promote the expression of the proapoptotic protein Bax, the tumor suppressor gene p53, and the cleaved DNA repair enzyme; also recorded: significantly induce the expression of Bax, p53 and cleaved-PARP | no abnormal areas are observed in tissue staining of liver, kidney and spleen; also recorded: no detectable abnormalities were observed in liver, kidney and spleen | cause tumor tissue to produce necrotic areas; also recorded: extensive areas of necrosis or cell death | no significant influence on mouse body weight; also recorded: no significant weight loss observed | significantly inhibit tumor growth in vivo; also recorded: anti-tumor activities in vivo | 1600 nM |
